Read-outs that look alike come from different tables or passages of the source.
Conditions: methionine enantiomers in water

For `CSCC[C@H](N)C(=O)O` (racemic) [methionine], which “Solubility at eutectic composition” value (274.15 K) is on record?
Its value is “′ 3.83 wt %”.

What about the “Solubility at eutectic composition” value (333.15 K) of the same molecule?
Its value is “′ 9.38 wt %”.
